Experimental data reported in PubChem BioAssay (NCI).
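Tested at 5 concentrations; 48 h exposure; 96-well plates; endpoints linearly interpolated, else capped at highest concentration. The concentration for 50% growth inhibition is given as GI50. TGI denotes the concentration required for complete inhibition of growth.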

What was measured:
Assay in all cases: NCI tumour cell line growth inhibition, 48 h
A498 renal = tested on: A498 renal
HCC-2998 colon = tested on: HCC-2998 colon
OVCAR-4 ovarian = tested on: OVCAR-4 ovarian
SF-268 CNS = tested on: SF-268 CNS
OVCAR-3 ovarian = tested on: OVCAR-3 ovarian
EKVX NSCLC = tested on: EKVX NSCLC
HCT-116 colon = tested on: HCT-116 colon
SF-539 CNS = tested on: SF-539 CNS
RPMI-8226 leukemia = tested on: RPMI-8226 leukemia
OVCAR-5 ovarian = tested on: OVCAR-5 ovarian
LOX IMVI melanoma = tested on: LOX IMVI melanoma
CCRF-CEM leukemia = tested on: CCRF-CEM leukemia
SN12C renal = tested on: SN12C renal
SR leukemia = tested on: SR leukemia
786-0 renal = tested on: 786-0 renal
SK-MEL-2 melanoma = tested on: SK-MEL-2 melanoma
SK-OV-3 ovarian = tested on: SK-OV-3 ovarian
CAKI-1 renal = tested on: CAKI-1 renal
SK-MEL-28 melanoma = tested on: SK-MEL-28 melanoma
HS 578T breast = tested on: HS 578T breast
NCI-H226 lung = tested on: NCI-H226 lung
RXF 393 renal = tested on: RXF 393 renal
KM12 colon = tested on: KM12 colon
NCI-H460 lung = tested on: NCI-H460 lung
MDA-MB-468 breast = tested on: MDA-MB-468 breast
UO-31 renal = tested on: UO-31 renal
COLO 205 colon = tested on: COLO 205 colon
SF-295 CNS = tested on: SF-295 CNS
MDA-MB-231 breast = tested on: MDA-MB-231 breast
M14 melanoma = tested on: M14 melanoma
K-562 leukemia = tested on: K-562 leukemia
ACHN renal = tested on: ACHN renal
HOP-62 NSCLC = tested on: HOP-62 NSCLC
HCT-15 colon = tested on: HCT-15 colon
HT29 colon = tested on: HT29 colon
TK-10 renal = tested on: TK-10 renal
SNB-75 CNS = tested on: SNB-75 CNS
OVCAR-8 ovarian = tested on: OVCAR-8 ovarian
IGROV1 ovarian = tested on: IGROV1 ovarian
SK-MEL-5 melanoma = tested on: SK-MEL-5 melanoma
SW-620 colon = tested on: SW-620 colon
T-47D breast = tested on: T-47D breast
PC-3 prostate = tested on: PC-3 prostate
BT-549 breast = tested on: BT-549 breast
NCI-H23 lung = tested on: NCI-H23 lung
U251 CNS = tested on: U251 CNS
DU-145 prostate = tested on: DU-145 prostate
HL-60(TB) leukemia = tested on: HL-60(TB) leukemia
HOP-92 NSCLC = tested on: HOP-92 NSCLC
A549 NSCLC = tested on: A549 NSCLC
UACC-62 melanoma = tested on: UACC-62 melanoma
MCF7 breast = tested on: MCF7 breast
MALME-3M melanoma = tested on: MALME-3M melanoma
NCI-H522 lung = tested on: NCI-H522 lung
MOLT-4 leukemia = tested on: MOLT-4 leukemia
SNB-19 CNS = tested on: SNB-19 CNS

Structure (SMILES): O=C(Nc1cccc(-c2cn(-c3ccc4oc(=O)ccc4c3)nn2)c1)Nc1cc(C(F)(F)F)cc(C(F)(F)F)c1
- GI50 (A498 renal): 20.7 µM
- TGI (A498 renal): > 100 µM
- GI50 (HCC-2998 colon): 8.14 µM
- TGI (HCC-2998 colon): > 100 µM
- GI50 (OVCAR-4 ovarian): 3.42 µM
- TGI (OVCAR-4 ovarian): > 100 µM
- GI50 (SF-268 CNS): 21.3 µM
- TGI (SF-268 CNS): > 100 µM
- GI50 (OVCAR-3 ovarian): 3.31 µM
- TGI (OVCAR-3 ovarian): > 100 µM
- GI50 (EKVX NSCLC): 5.04 µM
- TGI (EKVX NSCLC): > 100 µM
- GI50 (HCT-116 colon): 7.17 µM
- TGI (HCT-116 colon): > 100 µM
- GI50 (SF-539 CNS): 15.1 µM
- TGI (SF-539 CNS): > 100 µM
- GI50 (RPMI-8226 leukemia): 2.88 µM
- TGI (RPMI-8226 leukemia): > 100 µM
- GI50 (OVCAR-5 ovarian): > 100 µM
- TGI (OVCAR-5 ovarian): > 100 µM
- GI50 (LOX IMVI melanoma): 7.55 µM
- TGI (LOX IMVI melanoma): > 100 µM
- GI50 (CCRF-CEM leukemia): 3.31 µM
- TGI (CCRF-CEM leukemia): > 100 µM
- GI50 (SN12C renal): 6.31 µM
- TGI (SN12C renal): > 100 µM
- GI50 (SR leukemia): 5.63 µM
- TGI (SR leukemia): > 100 µM
- GI50 (786-0 renal): 12.6 µM
- TGI (786-0 renal): 68.1 µM
- GI50 (SK-MEL-2 melanoma): 5.55 µM
- TGI (SK-MEL-2 melanoma): 25.7 µM
- GI50 (SK-OV-3 ovarian): 18.6 µM
- TGI (SK-OV-3 ovarian): > 100 µM
- GI50 (CAKI-1 renal): 6.3 µM
- TGI (CAKI-1 renal): > 100 µM
- GI50 (SK-MEL-28 melanoma): > 100 µM
- TGI (SK-MEL-28 melanoma): > 100 µM
- GI50 (HS 578T breast): 5.16 µM
- TGI (HS 578T breast): > 100 µM
- GI50 (NCI-H226 lung): 5.57 µM
- TGI (NCI-H226 lung): > 100 µM
- GI50 (RXF 393 renal): 2.44 µM
- TGI (RXF 393 renal): 8.47 µM
- GI50 (KM12 colon): 5.2 µM
- TGI (KM12 colon): > 100 µM
- GI50 (NCI-H460 lung): 4.81 µM
- TGI (NCI-H460 lung): > 100 µM
- GI50 (MDA-MB-468 breast): 2.43 µM
- TGI (MDA-MB-468 breast): 8.69 µM
- GI50 (UO-31 renal): 6.34 µM
- TGI (UO-31 renal): > 100 µM
- GI50 (COLO 205 colon): > 100 µM
- TGI (COLO 205 colon): > 100 µM
- GI50 (SF-295 CNS): 3.31 µM
- TGI (SF-295 CNS): > 100 µM
- GI50 (MDA-MB-231 breast): 18.2 µM
- TGI (MDA-MB-231 breast): > 100 µM
- GI50 (M14 melanoma): > 100 µM
- TGI (M14 melanoma): > 100 µM
- GI50 (K-562 leukemia): 3.25 µM
- TGI (K-562 leukemia): > 100 µM
- GI50 (ACHN renal): 6.86 µM
- TGI (ACHN renal): 90.2 µM
- GI50 (HOP-62 NSCLC): 8.08 µM
- TGI (HOP-62 NSCLC): 66.9 µM
- GI50 (HCT-15 colon): 5.15 µM
- TGI (HCT-15 colon): > 100 µM
- GI50 (HT29 colon): > 100 µM
- TGI (HT29 colon): > 100 µM
- GI50 (TK-10 renal): 13.4 µM
- TGI (TK-10 renal): 56.9 µM
- GI50 (SNB-75 CNS): 10.2 µM
- TGI (SNB-75 CNS): 45.1 µM
- GI50 (OVCAR-8 ovarian): 5.73 µM
- TGI (OVCAR-8 ovarian): > 100 µM
- GI50 (IGROV1 ovarian): 8.87 µM
- TGI (IGROV1 ovarian): > 100 µM
- GI50 (SK-MEL-5 melanoma): 4.18 µM
- TGI (SK-MEL-5 melanoma): > 100 µM
- GI50 (SW-620 colon): 55.5 µM
- TGI (SW-620 colon): > 100 µM
- GI50 (T-47D breast): 3.14 µM
- TGI (T-47D breast): > 100 µM
- GI50 (PC-3 prostate): 4.07 µM
- TGI (PC-3 prostate): > 100 µM
- GI50 (BT-549 breast): 7.19 µM
- TGI (BT-549 breast): > 100 µM
- GI50 (NCI-H23 lung): 3.34 µM
- TGI (NCI-H23 lung): > 100 µM
- GI50 (U251 CNS): 4.69 µM
- TGI (U251 CNS): > 100 µM
- GI50 (DU-145 prostate): 8.09 µM
- TGI (DU-145 prostate): > 100 µM
- GI50 (HL-60(TB) leukemia): 6.5 µM
- TGI (HL-60(TB) leukemia): > 100 µM
- GI50 (HOP-92 NSCLC): 3.66 µM
- TGI (HOP-92 NSCLC): 31.3 µM
- GI50 (A549 NSCLC): 5.1 µM
- TGI (A549 NSCLC): > 100 µM
- GI50 (UACC-62 melanoma): 6.8 µM
- TGI (UACC-62 melanoma): > 100 µM
- GI50 (MCF7 breast): 4.41 µM
- TGI (MCF7 breast): > 100 µM
- GI50 (MALME-3M melanoma): 28.2 µM
- TGI (MALME-3M melanoma): > 100 µM
- GI50 (NCI-H522 lung): 4.39 µM
- TGI (NCI-H522 lung): > 100 µM
- GI50 (MOLT-4 leukemia): 3.82 µM
- TGI (MOLT-4 leukemia): > 100 µM
- GI50 (SNB-19 CNS): 10.1 µM
- TGI (SNB-19 CNS): 89.8 µM
